According to publication PMC6273176, “In Silico Mining for Antimalarial Structure-Activity Knowledge and Discovery of Novel Antimalarial Curcuminoids” (Molecules, 2016):
Where two headings read alike, the source gives them in different places.

Assays:
P. falciparum 3D7 strain = experiment: Antiplasmodial activity, SYBR Green I assay on P. falciparum 3D7 cultures; type: cell-based, Plasmodium falciparum; conditions: for IC50: read-out: Plasmodium falciparum 3D7 Strain IC50 ± SD
Procedure: In vitro biological assays. Compounds were tested to establish a full dose-titration and determination of the IC50. […] Antiplasmodial activity. The P. falciparum 3D7 strain was maintained in O+ human erythrocytes in albumin RPMI-supplemented medium under continuous culture using the candle-jar method. The parasites were synchronized to the ring stage by repeated sorbitol treatment. A 2.5% (v/v) erythrocyte suspension with 1% parasitemia (number of parasites per 100 red blood cells) was incubated with the compounds to be tested, previously dissolved in DMSO. […] After 44 h of incubation at 37 °C, the plates were subjected to 3 freeze-thaw cycles to achieve complete hemolysis. […] The incorporation of SYBR Green I (Applied Biosystems) in parasite DNA was measured using the Master […]® (Eppendorf) according to the following program to increase the SYBR Green incorporation: 90 °C (1 min), decrease in temperature from 90 °C to 10 °C (during 5 min) with reading the fluorescence. Then, the IC50 was calculated by icestimator software.

[1] = Cytotoxicity assay on MRC-5 fibroblasts (resazurin); type: cell-based, human; conditions: human
Procedure: (§1) In vitro biological assays. Compounds were tested to establish a full dose-titration and determination of the IC50. […] The selectivity antiprotozoal potential on P. falciparum (3D7 strain) was assessed by simultaneous evaluation of cytotoxicity on a fibroblast (MRC-5) cell line.
(§2) Cytotoxicity assay. […] Cell viability was assessed fluorometrically after 4 h of the addition of resazurin. Fluorescence was measured (excitation 550 nm, emission 590 nm), and the results were expressed as % reduction in cell viability compared to untreated control. Tamoxifen is used as the reference control.

[2] = system: human fibroblast MRC-5 cell line; experiment: as above; type: cell-based
Procedure: as §1, §2

[3] = Plasmodium falciparum, 3D7, 44 h, 3D7 strain, ring-stage synchronized, 44 h incubation, SYBR Green I
[4] = MRC-5 SV2 cells, 72 h, resazurin, read-out: Cytotoxicity MRC-5 CC50
[5] = Plasmodium falciparum, 3D7, 44 h

Row | IC50 (P. falciparum 3D7 strain; [3]) | Compound | CC50 at 72 h [1] | SI CC50/IC50 [2] | cytotoxicity classification from CC50 [2] | other results
1 | 51.2 ± 10.7 nM | COc1ccc(/C=C/C(=O)/C=C/c2ccc3ccccc3c2)cc1 [Compound A3] | 32 µM | 625 | rather not cytotoxic | 
2 | 70.6 ± 9.7 nM | O=C(/C=C/c1ccc(F)cc1)/C=C/c1ccc(F)cc1 [Compound A4] |  |  |  | 
3 | 110 ± 20.3 nM | CN(C)c1ccc(/C=C/C(=O)/C=C/c2ccc(F)cn2)cc1 [Compound A5] | 32.2 µM | 292.4 | rather not cytotoxic | 
4 | 111 ± 12.5 nM | CN(C)c1ccc(/C=C/C(=O)/C=C/c2nccs2)cc1 [Compound A6] | > 64 µM |  |  | 
5 | 120 ± 17.3 nM | O=C(/C=C/c1ccccc1)/C=C/c1ccncc1 [Compound A7] | 1.99 µM | 16.5 | rather cytotoxic | 
6 | 121 ± 12.4 nM | O=C(/C=C/c1ccc(Cl)cc1)/C=C/c1ccc(Cl)cc1 [Compound A9] | 42.4 µM | 351.6 | rather not cytotoxic | 
7 | 161 ± 20.5 nM | O=C(/C=C/c1ccccc1)/C=C/c1ccccn1 [Compound A10] | 1.53 µM | 9.5 | rather cytotoxic | 
8 | 181 ± 29.6 nM | O=C(/C=C/c1ccccc1Cl)/C=C/c1ccccc1Cl [Compound A11] | 29.4 µM | 162.3 |  | 
9 | > 500 nM | O=C(/C=C/c1ccncc1)/C=C/c1ccncc1 [Compound A13] | 1.13 µM | <2.3 | rather cytotoxic | 
10 | > 500 nM | O=C(/C=C/c1ccccc1)/C=C/c1ncccn1 [Compound A14] | 1.56 µM | <3.1 | rather cytotoxic | 
11 | > 500 nM | COc1ccc(/C=C/C(=O)/C=C/c2ccc(N)cc2)cc1 [Compound A15] |  |  |  | 
12 | > 500 nM | Cc1ccc(/C=C/C(=O)/C=C/c2ccc(C)cc2)cc1 [Compound A17] | 32.5 µM | <64.9 | rather not cytotoxic | 
13 |  | COc1cc(/C=C/C(=O)/C=C/c2ccc(O)c(OC)c2)ccc1O [Compound A18] | 1.06 µM | <2.1 | rather cytotoxic | IC50 (P. falciparum 3D7 strain; [5]): > 500 nM
14 | > 500 nM | CN(C)c1ccc(/C=C/C(=O)/C=C/c2ccc(N(C)C)cc2)cc1 [Compound A19] | 62.3 µM | <124.5 | rather not cytotoxic | 
15 | 30.3 ± 6.1 nM | COc1cc(Br)c(OC)c([C@@H]2CC(=O)C[C@H](c3cc(OC)cc(Br)c3OC)S2)c1 [Compound B1] | > 64 µM | >2112.2 |  | 
16 | 30.6 ± 9.2 nM | COc1cc([C@@H]2CC(=O)C[C@@H](c3cc(OC)c(C)cc3OC)S2)c(OC)cc1C [Compound B2] |  |  |  | 
17 | 60.4 ± 10.2 nM | O=C1C[C@@H](c2c(Cl)cccc2Cl)S[C@@H](c2c(Cl)cccc2Cl)C1 [Compound B4] |  |  |  | 
18 |  | O=C1C[C@H](c2ccccn2)[S+]([O-])[C@H](c2ccccn2)C1 (stereo partly drawn) [Compound B5] | 8.06 µM | 33.6 |  | IC50 (P. falciparum 3D7 strain; 3D7 strain, ring-stage synchronized, 44 h incubation, SYBR Green I): 240 ± 48.1 nM; cytotoxicity classification from CC50 ([2]; MRC-5 cells, class in words): moderately cytotoxic
19 | > 500 nM | O=C1C[C@@H](c2c(Cl)cccc2Cl)S[C@H](c2c(Cl)cccc2Cl)C1 [Compound B8] | > 64 µM | <128 |  | 
20 | > 500 nM | CN(C)c1ccc([C@H]2CC(=O)C[C@H](c3ccc(N(C)C)cc3)S2)cc1 [Compound B12] | 4.96 µM | <9.9 | moderately cytotoxic | observed activity against 3D7 P. falciparum strain (in words) (P. falciparum 3D7 strain; in vitro 3D7 culture, active/inactive): inactive
21 |  | CCN(CC)CCCC(C)Nc1ccnc2cc(Cl)ccc12 (stereo not drawn) [chloroquine, reference compound] |  |  |  | IC50 (P. falciparum 3D7 strain; [5]): 20.3 ± 5.2 nM
22 |  | CC/C(=C(\c1ccccc1)c1ccc(OCCN(C)C)cc1)c1ccccc1 [tamoxifen, reference compound] |  |  |  | CC50 at 72 h ([1]; MRC-5 SV2 fibroblast cells, MRC-5 SV2 cells, 72 h, resazurin, read-out: Cytotoxicity MRC-5 CC50): 9.12 µM

Row | Compound | IC50 (P. falciparum 3D7 strain; [3]) | CC50 at 72 h [1] | SI CC50/IC50 [2] | cytotoxicity classification from CC50 [2] | other results
23 | O=C(/C=C/c1ccccn1)/C=C/c1ccccn1 [Compound A1] | 30.1 ± 8.5 nM | 1.91 µM | 63.4 |  | cytotoxicity classification from CC50 ([2]; MRC-5 cells, class in words): rather cytotoxic
24 | COc1ccc(O)c(/C=C/C(=O)/C=C/c2cc(OC)ccc2O)c1 [Compound A2] | 30.2 ± 6.3 nM | 1.88 µM | 62.2 |  | cytotoxicity classification from CC50 ([2]; MRC-5 cells, class in words): rather cytotoxic
25 | O=C(/C=C/c1ccco1)/C=C/c1ccco1 [Compound A8] | 121 ± 10.5 nM |  | >530.2 |  | CC50 at 72 h [1, 4]: > 64 µM
26 | O=C(/C=C/c1c(Cl)cccc1Cl)/C=C/c1c(Cl)cccc1Cl [Compound A12] | 240 ± 20.4 nM |  | >266.5 |  | CC50 at 72 h [1, 4]: > 64 µM
27 | Cc1ccc(/C=C/C(=O)/C=C/c2ccc(C)o2)o1 [Compound A16] | > 500 nM | 5.36 µM | <10.7 |  | cytotoxicity classification from CC50 ([2]; MRC-5 cells, class in words): rather cytotoxic
28 | O=C1C[C@H](c2ccccn2)[S+]([O-])[C@@H](c2ccccn2)C1 [Compound B3] | 40.1 ± 7.3 nM | 8 µM | 199.5 |  | cytotoxicity classification from CC50 ([2]; MRC-5 cells, class in words): moderately cytotoxic
29 | O=C1C[C@@H](c2ccccn2)S[C@@H](c2ccccn2)C1 [Compound B6] | > 500 nM |  | <128 |  | CC50 at 72 h [1, 4]: > 64 µM
30 | O=C1C[C@H](c2ccccn2)S[C@@H](c2ccccn2)C1 [Compound B7] | > 500 nM |  | <128 |  | CC50 at 72 h [1, 4]: > 64 µM
31 | O=C1C[C@H](c2ccccn2)S(=O)(=O)[C@@H](c2ccccn2)C1 [Compound B9] | > 500 nM | 7.89 µM | <15.8 |  | cytotoxicity classification from CC50 ([2]; MRC-5 cells, class in words): moderately cytotoxic
32 | COc1ccc([C@H]2CC(=O)C[C@H](c3ccc(OC)cc3)S2(=O)=O)cc1 [Compound B10] | > 500 nM |  | <128 |  | CC50 at 72 h [1, 4]: > 64 µM
33 | O=C1C[C@H](c2ccccn2)S(=O)(=O)[C@H](c2ccccn2)C1 [Compound B11] | > 500 nM | 7.47 µM | <14.9 |  | cytotoxicity classification from CC50 ([2]; MRC-5 cells, class in words): moderately cytotoxic
